Test results from US8030443B2, “Squamous cell carcinoma antigen-derived peptide binding to HLA-A24 molecule” (Kurume University, priority 2005, dated 2011).

Tested on: peptide-specific IgG in sera of cancer patients and healthy donors
Assay: Measurement of anti-peptide IgG in plasma by LUMINEX multiplexed flow cytometric assay
Assay type: binding, human
Outline: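 Plasma diluted 1/100 incubated with peptide-coupled colour-coded beads 2 h at RT, then biotinylated goat anti-human IgG (γ-chain) 1 h and streptavidin-PE 30 min; fluorescence read by multiplexed flow cytometry, >100 counted significant. Specificity checked by three rounds of absorption on corresponding versus irrelevant SCCA peptide.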

For “RFKVEESYDL (SCCA 286-295 peptide) [SCCA-derived peptide, position 286-295]”, the “Total: healthy donors with significant peptide-reactive IgG / donors tested” value (10 healthy donors, significant when fluorescence intensity exceeded 100 at 1/100 dilution) was 4/10, the “Total: cancer patients with significant peptide-reactive IgG / patients tested” value (71 cancer patients, significant when fluorescence intensity exceeded 100 at 1/100 dilution) was 19/71 and the “Specificity of IgG reactive to the peptide” value (absorption assay: corresponding vs irrelevant SCCA peptide-coated wells (FIG. 3)) was “confirmed by absorption assay”. It also gave a Fluorescence intesity (serum of Breast Ca. patient #36, 1:100 dilution) of 292, a Fluorescence intesity (serum of Breast Ca. patient #37, 1:100 dilution) of 54 and a Fluorescence intesity (serum of Breast Ca. patient #38, 1:100 dilution) of 95. For the same sequence, the Fluorescence intesity (serum of Breast Ca. patient #39, 1:100 dilution) was 117, the Fluorescence intesity (serum of Breast Ca. patient #40, 1:100 dilution) was 32 and the Fluorescence intesity (serum of Breast Ca. patient #41, 1:100 dilution) was 321. For the same sequence, the Fluorescence intesity (serum of Breast Ca. patient #42, 1:100 dilution) was 47, the Fluorescence intesity (serum of Breast Ca. patient #43, 1:100 dilution) was 58 and the Fluorescence intesity (serum of Breast Ca. patient #44, 1:100 dilution) was 155. It also gave a Fluorescence intesity (serum of Breast Ca. patient #45, 1:100 dilution) of 80, a Fluorescence intesity (serum of Colon Ca. patient #66, 1:100 dilution) of 4 and a Fluorescence intesity (serum of Colon Ca. patient #67, 1:100 dilution) of 35. It also gave a Fluorescence intesity (serum of Colon Ca. patient #68, 1:100 dilution) of 0, a Fluorescence intesity (serum of Colon Ca. patient #69, 1:100 dilution) of 8 and a Fluorescence intesity (serum of Colon Ca. patient #70, 1:100 dilution) of 16. For the same sequence, the Fluorescence intesity (serum of Colon Ca. patient #71, 1:100 dilution) was 45, the Fluorescence intesity (serum of Gastric Ca. patient #56, 1:100 dilution) was 243 and the Fluorescence intesity (serum of Gastric Ca. patient #57, 1:100 dilution) was 9. It also gave a Fluorescence intesity (serum of Gastric Ca. patient #58, 1:100 dilution) of 27, a Fluorescence intesity (serum of Gastric Ca. patient #59, 1:100 dilution) of 258 and a Fluorescence intesity (serum of Gastric Ca. patient #60, 1:100 dilution) of 79. For the same sequence, the Fluorescence intesity (serum of Gastric Ca. patient #61, 1:100 dilution) was 286, the Fluorescence intesity (serum of Gastric Ca. patient #62, 1:100 dilution) was 0 and the Fluorescence intesity (serum of Gastric Ca. patient #63, 1:100 dilution) was 7. The Fluorescence intesity (serum of Gastric Ca. patient #64, 1:100 dilution) was 40, the Fluorescence intesity (serum of Gastric Ca. patient #65, 1:100 dilution) was 37 and the Fluorescence intesity (serum of Healthy Donor #1, 1:100 dilution) was 21. It also gave a Fluorescence intesity (serum of Healthy Donor #2, 1:100 dilution) of 219, a Fluorescence intesity (serum of Healthy Donor #3, 1:100 dilution) of 9 and a Fluorescence intesity (serum of Healthy Donor #4, 1:100 dilution) of 0. It also gave a Fluorescence intesity (serum of Healthy Donor #5, 1:100 dilution) of 239, a Fluorescence intesity (serum of Healthy Donor #6, 1:100 dilution) of 2 and a Fluorescence intesity (serum of Healthy Donor #7, 1:100 dilution) of 0. The Fluorescence intesity (serum of Healthy Donor #8, 1:100 dilution) was 516, the Fluorescence intesity (serum of Healthy Donor #9, 1:100 dilution) was 100 and the Fluorescence intesity (serum of Healthy Donor #10, 1:100 dilution) was 138. It also gave a Fluorescence intesity (serum of Pancreas Ca. patient #46, 1:100 dilution) of 0, a Fluorescence intesity (serum of Pancreas Ca. patient #47, 1:100 dilution) of 37 and a Fluorescence intesity (serum of Pancreas Ca. patient #48, 1:100 dilution) of 946. It also gave a Fluorescence intesity (serum of Pancreas Ca. patient #49, 1:100 dilution) of 97, a Fluorescence intesity (serum of Pancreas Ca. patient #50, 1:100 dilution) of 0 and a Fluorescence intesity (serum of Pancreas Ca. patient #51, 1:100 dilution) of 0. The Fluorescence intesity (serum of Pancreas Ca. patient #52, 1:100 dilution) was 275, the Fluorescence intesity (serum of Pancreas Ca. patient #53, 1:100 dilution) was 41 and the Fluorescence intesity (serum of Pancreas Ca. patient #54, 1:100 dilution) was 48. The Fluorescence intesity (serum of Pancreas Ca. patient #55, 1:100 dilution) was 24, the Fluorescence intesity (serum of Uterine cervical Ca. patient #1, 1:100 dilution) was 75 and the Fluorescence intesity (serum of Uterine cervical Ca. patient #2, 1:100 dilution) was 0. For the same sequence, the Fluorescence intesity (serum of Uterine cervical Ca. patient #3, 1:100 dilution) was 21, the Fluorescence intesity (serum of Uterine cervical Ca. patient #4, 1:100 dilution) was 229 and the Fluorescence intesity (serum of Uterine cervical Ca. patient #5, 1:100 dilution) was 58. It also gave a Fluorescence intesity (serum of Uterine cervical Ca. patient #6, 1:100 dilution) of 869, a Fluorescence intesity (serum of Uterine cervical Ca. patient #7, 1:100 dilution) of 15 and a Fluorescence intesity (serum of Uterine cervical Ca. patient #8, 1:100 dilution) of 30. It also gave a Fluorescence intesity (serum of Uterine cervical Ca. patient #9, 1:100 dilution) of 93, a Fluorescence intesity (serum of Uterine cervical Ca. patient #10, 1:100 dilution) of 14 and a Fluorescence intesity (serum of Uterine cervical Ca. patient #11, 1:100 dilution) of 23. The Fluorescence intesity (serum of Uterine cervical Ca. patient #12, 1:100 dilution) was 44, the Fluorescence intesity (serum of Uterine cervical Ca. patient #13, 1:100 dilution) was 29 and the Fluorescence intesity (serum of Uterine cervical Ca. patient #14, 1:100 dilution) was 19. The Fluorescence intesity (serum of Uterine cervical Ca. patient #15, 1:100 dilution) was 129, the Fluorescence intesity (serum of Uterine cervical Ca. patient #16, 1:100 dilution) was 147 and the Fluorescence intesity (serum of Uterine cervical Ca. patient #17, 1:100 dilution) was 63. The Fluorescence intesity (serum of Uterine cervical Ca. patient #18, 1:100 dilution) was 48, the Fluorescence intesity (serum of Uterine cervical Ca. patient #19, 1:100 dilution) was 62 and the Fluorescence intesity (serum of Uterine cervical Ca. patient #20, 1:100 dilution) was 102. For the same sequence, the Fluorescence intesity (serum of Uterine cervical Ca. patient #21, 1:100 dilution) was 21, the Fluorescence intesity (serum of Uterine cervical Ca. patient #22, 1:100 dilution) was 25 and the Fluorescence intesity (serum of Uterine cervical Ca. patient #23, 1:100 dilution) was 60. It also gave a Fluorescence intesity (serum of Uterine cervical Ca. patient #24, 1:100 dilution) of 1779, a Fluorescence intesity (serum of Uterine cervical Ca. patient #25, 1:100 dilution) of 18 and a Fluorescence intesity (serum of Uterine cervical Ca. patient #26, 1:100 dilution) of 97. For the same sequence, the Fluorescence intesity (serum of Uterine cervical Ca. patient #27, 1:100 dilution) was 29, the Fluorescence intesity (serum of Uterine cervical Ca. patient #28, 1:100 dilution) was 139 and the Fluorescence intesity (serum of Uterine cervical Ca. patient #29, 1:100 dilution) was 16. It also gave a Fluorescence intesity (serum of Uterine cervical Ca. patient #30, 1:100 dilution) of 34, a Fluorescence intesity (serum of Uterine cervical Ca. patient #31, 1:100 dilution) of 104 and a Fluorescence intesity (serum of Uterine cervical Ca. patient #32, 1:100 dilution) of 19. The Fluorescence intesity (serum of Uterine cervical Ca. patient #33, 1:100 dilution) was 118, the Fluorescence intesity (serum of Uterine cervical Ca. patient #34, 1:100 dilution) was 16 and the Fluorescence intesity (serum of Uterine cervical Ca. patient #35, 1:100 dilution) was 21.
